Data reported in US4032625A, “Bone-seeking technetium-99m complex” (priority 1975, dated 1977).

Test: Distribution of 99mTc-EHDP and 85Sr in rabbits, simultaneous study (Example 2, Table 1)
Format: in vivo, New Zealand albino rabbits
Procedure: Adult New Zealand albino rabbits having an average weight of 3.8 kg were utilized. Strontium-85 was employed as a standard for comparison. […] Each dosage is contained in a volume of 1 ml.
The animals were sacrificed serially from 1 to 24 hours after injection and the activities in major organs were determined by counting multiple samples from each organ in a scintillation well counter (the technetium-99m counts were corrected for the Compton contributions from the strontium-85 activity in the technetium-99m energy window). Multiple samples were counted from the tibia, femur, spine and pelvic bones; the total activity in the skeleton was estimated by assuming the whole skeleton consisted of equal proportions by weight of tibia, spine, femur and pelvis and that the skeletal mass was 10% of the body weight. The red marrow was sampled from the femur and the total marrow was assumed to be 2.2% of the total body weight. Similarly, blood volume was assumed to be 7% and the skeletal muscle 43% of the body weight. The whole liver and both kidneys were weighed and multiple samples from each were counted to measure the total activity in each organ.
In another series of experiments carried out as described above, localization of technetium from its tin-phosphonate complex was determined in the callous of three week-old fractures of tibia in albino rabbits, again in comparison with strontium-85. Comparative radioassay of technetium-99m administered as the pertechnetate was measured in the callous of tibial fractures in rabbits at one and four hours after administration.

In the case of `[85Sr]` [^85 Sr], the “% Dose in Whole Organ: Kidneys” value (1 Hr) is reported as 0.80 % dose, the “% Dose in Whole Organ: Liver” value (1 Hr) is reported as 1.57 % dose and the “% Dose in Whole Organ: One Femur” value (1 Hr) is reported as 1.04 % dose. The “% Dose: Urine” value (1 Hr) was 6.96 % dose, the “% dose in whole organ: Blood (7% of body weight)” value (“% dose in whole organ: Blood” below) (1 Hr) was 11.9 % dose and the “% dose in whole organ: Bone(Avg) (10% of body weight)” value (shortened to “% dose in whole organ: Bone(Avg)”) (1 Hr) was 56.0 % dose. For the same molecule, the “% dose in whole organ: Marrow (2.2% of body weight)” value (from here on “% dose in whole organ: Marrow”) (1 Hr) was 0.91 % dose, the “% dose in whole organ: Muscle (43% of body weight)” value (shortened to “% dose in whole organ: Muscle”) (1 Hr) was 13.4 % dose and the Bone/Muscle ratio (1 Hr) was 19. For the same molecule, the “Ratio Bone/Blood” value (1 Hr) was 3.4, the “Ratio Bone/Marrow” value (1 Hr) was 14 and the “Ratio Callus/N. Femur” value (1 Hr) was 7. For the same molecule, the “Ratio Callus/N. Tibia” value (1 Hr) was 9, the “Ratio Plus/Blood” value (1 Hr) was 18 and the “% Dose in Whole Organ: Kidneys” value (2 Hrs) was 0.64 % dose. For the same molecule, the “% Dose in Whole Organ: Liver” value (2 Hrs) was 0.98 % dose, the “% Dose in Whole Organ: One Femur” value (2 Hrs) was 1.21 % dose and the “% Dose: Urine” value (2 Hrs) was 18.0 % dose. For the same molecule, the “% dose in whole organ: Blood” value (2 Hrs) was 7.08 % dose, the “% dose in whole organ: Bone(Avg)” value (2 Hrs) was 49.4 % dose and the “% dose in whole organ: Marrow” value (2 Hrs) was 0.76 % dose. The “% dose in whole organ: Muscle” value (2 Hrs) was 8.8 % dose, the Bone/Muscle ratio (2 Hrs) was 32 and the “Ratio Bone/Blood” value (2 Hrs) was 6.4. The “Ratio Bone/Marrow” value (2 Hrs) was 19, the “% Dose in Whole Organ: Kidneys” value (4 Hrs) was 0.34 % dose and the “% Dose in Whole Organ: Liver” value (4 Hrs) was 0.62 % dose. For the same molecule, the “% Dose in Whole Organ: One Femur” value (4 Hrs) was 1.25 % dose, the “% Dose: Urine” value (4 Hrs) was 22.7 % dose and the “% dose in whole organ: Blood” value (4 Hrs) was 3.85 % dose. For the same molecule, the “% dose in whole organ: Bone(Avg)” value (4 Hrs) was 68.1 % dose, the “% dose in whole organ: Marrow” value (4 Hrs) was 0.50 % dose and the “% dose in whole organ: Muscle” value (4 Hrs) was 6.46 % dose. For the same molecule, the Bone/Muscle ratio (4 Hrs) was 47, the “Ratio Bone/Blood” value (4 Hrs) was 13 and the “Ratio Bone/Marrow” value (4 Hrs) was 32. For the same molecule, the “Ratio Callus/N. Femur” value (4 Hrs) was 7, the “Ratio Callus/N. Tibia” value (4 Hrs) was 8 and the “Ratio Plus/Blood” value (4 Hrs) was 81. For the same molecule, the “% Dose in Whole Organ: Kidneys” value (24 Hrs) was 0.03 % dose, the “% Dose in Whole Organ: Liver” value (24 Hrs) was 0.04 % dose and the “% Dose in Whole Organ: One Femur” value (24 Hrs) was 0.93 % dose. The “% dose in whole organ: Blood” value (24 Hrs) was 0.29 % dose, the “% dose in whole organ: Bone(Avg)” value (24 Hrs) was 51.9 % dose and the “% dose in whole organ: Marrow” value (24 Hrs) was 0.10 % dose. The “% dose in whole organ: Muscle” value (24 Hrs) was 1.00 % dose, the Bone/Muscle ratio (24 Hrs) was 227 and the “Ratio Bone/Blood” value (24 Hrs) was 134. For the same molecule, the “Ratio Bone/Marrow” value (24 Hrs) was 119.
